Results published in US20230301883A1, “MOISTURIZING ANTIBACTERIAL COMPOSITION” (priority 2020, published 2023).

Columns and labels:
[1] = Solubility of sensory oil in 75/25 EtOH/Water blend; type: physicochemical
From the text: (§1) A sensory oil can be used in the antibacterial composition to assist in leaving the user with a non-tacky feeling to the skin after application of the composition. The antibacterial composition comprises a sensory oil in an amount of 0.01 to 10% by weight, preferably 0.5 to 5% by weight including all values and ranges subsumed therein. The sensory oil can comprise a soluble sensory oil. Sensory oils desirable for use in the antibacterial composition disclosed herein must meet the following criteria: the sensory oil must be liquid, the sensory oil must be soluble in at least a 75/25 or higher ratio of EtOH/Water which is to be reflective of solubility in the final composition to give a clear final antibacterial composition, and the sensory oil must have no solvency for water.
(§2) The examples are not meant to limit the materials that can be used but merely to illustrate oil type and level selected based on three criteria. […] Finally, the preferred oil must itself not have solvency for water such that during application and on drying as the ethanol and water evaporate, the water is also allowed to quickly evaporate leaving behind only the oil and any skin benefit actives/moisturizers if present.

[2] = Water solubility in sensory oil (solvency of the oil for water); type: physicochemical; details: yes/no
From the text: as §1, §2

cells = experiment: Wound healing (scratch closure) assay; type: cell-based; details: 24 hours after scratch
Protocol: In this example, various combinations of benefit agents were tested for resilience wound healing and barrier repair. For wound healing assessments, cells were grown to 80% confluency and treated with bioactives for 24 to 36 hours. Post treatment, a scratch was created on the cell and closure of the wound was monitored after 24 hours of incubation. Closure of the scratch area was calculated as a % closure of the wound. Microscopic images were captured at a magnification of 4× and the open wound area measurements were analyzed using the software CellSens. Wound closure in percentage=(mean of the readings of the open wound area at (t=24)−mean of the readings of the open wound area at (t=0)/mean of the readings at (t=0))*100.

melanin content of cells = experiment: Melanin content assay; type: cell-based; details: for % Inhibition in Melanin Content: 72 hours incubation
Protocol: In this Example, cells were grown for 24 hours and treated with bioactives and incubated for 72 hours. Post treatment, the cells were lysed and absorbance measured at 405 nm. The lysate was transferred to a fresh 384-well clear flat bottom plate and an […] was measured at 405 nm using a FlexStation 3 reader. (% reduction in melanin content was measured by taking the mean absorbance value of the control−the mean absorbance value of the treated cells/the mean absorbance value of the control)*100

Q: For Dicapryl maleate, which “Solubility in 75/25 EtOH/Water” value [1] is on record?
A: <10%

Q: And the “Water solubility in sensory oil” value [2]?
A: No

Q: Which “Solubility in 75/25 EtOH/Water” value [1] does the source give for Isocetyl alcohol here?
A: <10%

Q: And the “Water solubility in sensory oil” value [2]?
A: No

Q: Which results are given for Sodium Hyaluronate?
A: % Closure in Scratch Area (cells; 0.001%): 51%; % Inhibition in Melanin Content (melanin content of cells; 0.001%): 9.09%

Q: Which results are given for PPG-2 Isoceteth-20 Acetate?
A: Solubility in 75/25 EtOH/Water [1]: >30%; Water solubility in sensory oil [2]: no

Q: With `CCCCCCc1ccc(O)cc1O` [4-Hexyl resorcinol, reference compound] as the compound, how does the inhibition at 10 µM (melanin content of cells; 10 micromolar, read-out: % inhibition in melanin content (benchmark)) read?
A: ~33%

Q: Which “Solubility in 75/25 EtOH/Water” value [1] does the source give for Glyceryl Monoleate here?
A: >30%

Q: What about the “Water solubility in sensory oil” value [2] of the same compound?
A: yes

Q: With `CCCCC(CC)COC(=O)CCCCCCCCC(=O)OCC(CC)CCCC` (centres unmarked) [Diethyl hexyl sebacate] as the compound, how does the “Solubility in 75/25 EtOH/Water” value [1] read?
A: <10%

Q: And the “Water solubility in sensory oil” value [2]?
A: No

Q: What does the source list for `CC(C)OC(=O)CCCCC(=O)OC(C)C` [Disopropyl adipate]?
A: Solubility in 75/25 EtOH/Water [1]: >30%; Water solubility in sensory oil [2]: No

Q: With `CCCCC(CC)COC(=O)CCCCC(=O)OCC(CC)CCCC` (centres unmarked) [Diethylhexyl adipate] as the compound, how does the “Solubility in 75/25 EtOH/Water” value [1] read?
A: <10%

Q: And the “Water solubility in sensory oil” value [2]?
A: No

Q: With PPG-2-Isoceteth-2 as the compound, how does the “Solubility in 75/25 EtOH/Water” value [1] read?
A: >30%

Q: And the “Water solubility in sensory oil” value [2]?
A: Yes

Q: What does the source list for `CCCCC(CC)COC(=O)CC(O)C(=O)OCC(CC)CCCC` (centres unmarked) [Diethyl hexyl malate]?
A: Solubility in 75/25 EtOH/Water [1]: >30%; Water solubility in sensory oil [2]: No

Q: What does the source list for `CCCCCCCCCCCCOC(=O)C(C)O` (centres unmarked) [Lauryl lactate]?
A: Solubility in 75/25 EtOH/Water [1]: >30%; Water solubility in sensory oil [2]: No

Q: Which results are given for `NC(=O)c1cccnc1` [Vitamin B3, niacinamide]?
A: % Closure in Scratch Area (cells; 0.2%): 30%; % Inhibition in Melanin Content (melanin content of cells; 0.2%): 7.47%

Q: Which “% Closure in Scratch Area” value (cells; 0.001%) does the source give for tocopherol [Vitamin E] here?
A: 32%

Q: What about the “% Closure in Scratch Area” value (cells; 0.05%) of the same compound?
A: 48%

Q: And the “% Inhibition in Melanin Content” value (melanin content of cells; 0.001%)?
A: 3.56%

Q: And the “% Inhibition in Melanin Content” value (melanin content of cells; 0.05%)?
A: 15.62%
